From US5380759A, “Methyl N-[6-(3,4,5-trimethoxybenzloxy)imidazo[1,2-b]pyridazin-2-zyl]carbamate used to treat leukemia” (priority 1987, dated 1995)

Assays:
P388/O tumour = experiment: Lymphocytic leukaemia P388/O test; format: in vivo, mouse
Method: C. Lymphocytic Leukemia P388/O Test
CD2-F1 mice, of the same sex, weighing within a 3 gram range surrounding 20 g, are used for this test. Control and test animals are injected intraperitoneally with a suspension of 10^6 viable P388/O tumour cells on day 0. In each test several dose levels which bracket the LD20 for the compound are evaluated; each dose level group contains 6 animals. The test compounds are prepared either in physiologic saline containing 0.05% Tween 80 or distilled water containing 5% dextrose and are administered intraperitoneally on days 1,5 and 9 relative to tumour implant. Doses are on a mg/kg basis according to individual animals' body weights. The day of death for each animal is recorded and the median day of death identified for each group. The difference between the median survival time for treated and control groups is expressed as a percentage increase in life span (% ILS).

LD20 (Mouse) = format: in vivo; details: i.p. days 1, 5 and 9, CD2-F1 mice, observed up to 14 days
tubulin = experiment: Turbidimetric assay of tubulin polymerisation; format: biochemical, horse; details: 37° C., increase in A350nm 10 min after lag phase; read-out: Total tubulin polymerisation IC50
Method: A) Tubulin Polymerisation Assay
1. Preparation of tubulin
All manipulations are performed at 4° C. unless otherwise specified. The horse brain is washed in ice-cold BBG buffer and superficial meninges and blood vessels removed. After weighing, cerebral cortices are chopped, homogenised in 75 ml BBG buffer/100 g brain, centrifuged at 6500 g for 15 min and after removal of […], re-centrifuged at 100,000 g for 75 min. The volume of the supernatant (Vml) is measured and V/10 ml 10 mM GTP (Li salt) in H2 O added. The mixture is incubated in sealed centrifuge tubes (30 min, 34° C.) in a shaking water bath to polymerise the tubulin. After polymerisation the tubes are balanced and centrifuged at 100,000 g, (1 h at 27° C.) in a pre-warmed rotor. The high-speed pellet is resuspended in V/4 ml BB buffer and the preparation stirred on ice for 30 min and centrifuged at 100,000 g (1 h at 4° C.) to remove the cold-stable microtubules. An equal volume of BB2G buffer is added to the supernatant which is frozen rapidly in 5 ml samples in plastic weighing dishes floated on a solid CO2 /ethanol slurry, and stored overnight at -80° C. After ca. 18 hours the frozen samples of tubulin are thawed, 10 mM GTP in H2 O added to give a final concentration of 1 mM, and the new volume (Wml), is measured. The polymerisation/depolymerisation cycle is repeated exactly as above but substituting W for V to give twice-cycled tubulin.
2. Turbidimetric Assay of Tubulin Polymerisation
Apparatus: recording spectrophotometer with a 6-position, thermostatted cuvette holder; full scale deflection=0.2 absorbance units.
In a 1 ml spectrophotometer cuvette are mixed 100 μl 10 mM GTP (Li salt) made up in BB buffer, 10 μl H2 O or DMSO-depending on selected drug solvent, BB buffer and tubulin preparation such that the final increase in A350nm is 0.15 units after 16 mins (approx. 100 μl of tubulin prep. or 2.5 mg protein) in a final volume of 1 ml at 37° C. All reagents are stored on ice.
Polymerisation is initiated by raising the temperature to 37° C. and the increase in A350nm of triplicate samples against a reference cuvette is recorded. The reference sample includes a similar incubation mixture either without tubulin or with the addition of 1 mM Ca^2+. The increase over initial A350nm 10 min after the completion of lag phase (control polymerisation is 80% complete within this time) is calculated and expressed as a percentage of the control value, for a range of drug concentrations. The drug concentration required to give a 50% change (IC50) in the control value is determined.

P388 D1 cells = experiment: P388 D1 colony-forming assay; format: cell-based; details: Mus musculus, P388D1; 24 h exposure, 14 days colony growth; read-out: IC50 colony formation
Method: B) P338D1 Colony-forming Assay
In this assay, cells from an in vitro-adapted line of the mouse lymphoid neoplasm, P388 are first exposed to serially diluted concentrations of test compound over a 24 hour period in culture. Thereafter, the ability of such treated cells to form discrete colonies over a 14 day period after resuspension in a semi-solid drug-free medium is determined.
Initially cells in log growth are plated into individual 25 cm^2 tissue culture flasks each containing a final volume of 5 mls of Hepes buffered RPMI 1640 culture medium supplemented with 10 percent foetal calf serum, antibiotics and test compound. All compounds are formulated initially at appropriate concentrations in DMSO, 25 microliters of which is then added to each flask. All compounds are evaluated at concentrations ranging serially in four fold decrements from a top concentration some four fold greater than that already known to inhibit the proliferation of these cells by about 80 to 90 percent in the primary proliferative assay.
After 24 hrs exposure to the test compound the cells are counted and a known number of live cells transferred to a 15 ml centrifuge tube to which 4 mls of a 0.25 percent low temperature gelling agarose solution in complete RPMI tissue culture medium is then added. After 13 days incubation at 37° C., 1 ml of 1% p-Iodonitrotetrazolium violet is added to the top of each tube and allowed to permeate through the agarose for a further 24 to 48 hrs. This dye is metabolised by living cells to produce an insoluble red crystalline product which facilitates counting of the colonies. Samples are taken from each tube and the number of colonies containing a minimum of 50 cells is determined. The concentration of compound necessary to inhibit colony formation by 50 percent relative to that of control cells incubated under identical conditions but in the absence of the test compound is determined.

[1] = Mus musculus, P388, ip, 200 mg/kg i.p. days 1, 5 and 9
[2] = Mus musculus, P388, ip, 675 mg/kg i.p. days 1, 5 and 9

Question: Which results are given for `COC(=O)Nc1cn2nc(OCc3cccc4ccccc34)ccc2n1` [Example 9, Methyl N-[6-(1-Naphthylmethyloxy)imidazo[1,2-b]pyridazin-2-yl]carbamate]?
Answer: ILS at 200 mg/kg (P388/O tumour; [1]): 180%; LD50 (LD20 (Mouse)): 450 mg/kg; IC50 (tubulin): 890 nM

Question: Which results are given for `COC(=O)Nc1cn2nc(OCc3cc(OC)cc(OC)c3)ccc2n1` [Example 11, Methyl N-[6-(3,5-Dimethoxybenzyloxy)imidazo[1,2-b)pyridazin-2-yl]carbamate]?
Answer: 30 Day survivors (P388/O tumour; 675 mg/kg i.p. days 1, 5 and 9): 1/6; 60 Day Survivors (P388/O tumour; 675 mg/kg i.p. days 1, 5 and 9): 0/6; ILS at 675 mg/kg (P388/O tumour; [2]): 155%; IC50 (P388 D1 cells): 41 nM; LD50 (LD20 (Mouse)): > 450 mg/kg; IC50 (tubulin): 4240 nM

Question: For `COC(=O)Nc1cn2nc(OCc3cccc(C)c3)ccc2n1` [Example 12, Methyl N-[6-(3-methylbenzyloxy)imidazo[1,2-b]pyridazin-2-yl]carbamate], which ILS at 675 mg/kg (P388/O tumour; [2]) is on record?
Answer: The ILS at 675 mg/kg was 170%.

Question: And the LD50 (LD20 (Mouse))?
Answer: The LD50 was over 450 mg/kg.

Question: And the IC50 (tubulin)?
Answer: Its IC50 is 1210 nM.

Question: With `COC(=O)N(C)c1cn2nc(OCc3cc(OC)c(OC)c(OC)c3)ccc2n1` [Example 26, Methyl N-[N-Methyl-6-(3,4,5-trimethoxybenzyloxy)imidazo[1,2-b]pyridazin-2-yl]carbamate] as the compound, how does the ILS at 300 mg/kg (P388/O tumour; Mus musculus, P388, ip, 300 mg/kg i.p. days 1, 5 and 9) read?
Answer: Its ILS at 300 mg/kg is 263%.

Question: What about the LD50 (LD20 (Mouse)) of the same compound?
Answer: Its LD50 is 450 mg/kg.

Question: For `COC(=O)Nc1cn2nc(OCc3cc(OC)c(OC)c(OC)c3Br)ccc2n1` [Example 31, Methyl N-[6-(2-bromo-3,4,5-trimethoxybenzyloxy)imidazo[1,2-b]pyridazin-2-yl]carbamate], which LD50 (LD20 (Mouse)) is on record?
Answer: The LD50 was 165 mg/kg.

Question: With `COC(=O)Nc1cn2nc(OCc3cccc(OC)c3OC)ccc2n1` [Example 32, Methyl N-[6-(2,3-dimethoxybenzyloxy)imidazo[1,2-b]pyridazin-2-yl]carbamate] as the compound, how does the “60 Day Survivors” value (P388/O tumour; 750 mg/kg i.p. days 1, 5 and 9) read?
Answer: The value was 1/6.

Question: What about the ILS at 750 mg/kg (P388/O tumour; Mus musculus, P388, ip, 750 mg/kg i.p. days 1, 5 and 9) of the same compound?
Answer: The ILS at 750 mg/kg was 280%.

Question: What about the LD50 (LD20 (Mouse)) of the same compound?
Answer: The LD50 was over 450 mg/kg.

Question: For `CCOc1c(OC)cc(COc2ccc3nc(NC(=O)OC)cn3n2)cc1OC` [Example 33, Methyl N-[6-(3,5-dimethoxy-4-ethoxybenzyloxy)imidazo[1,2-b]pyridazin-2-yl]carbamate], which “60 Day Survivors” value (P388/O tumour; (Day 51), 200 mg/kg i.p. days 1, 5 and 9) is on record?
Answer: The value was 3/6.

Question: What about the ILS at 200 mg/kg (P388/O tumour; [1]) of the same compound?
Answer: Its ILS at 200 mg/kg is 240%.
